From patent US12258561B2, “Compositions and methods to promote bone formation and their uses including for the treatment of cancer” (THE RESEARCH FOUNDATION FOR THE STATE UNIVERSITY OF NEW YORK, priority 2014, dated 2025) come the findings set out here.

Assay [1] concerns MSC cultures induced to become osteoblasts. Kind of assay: Osteogenesis: mineral formation in MSC with osteoinduction media (alizarin red-S staining). The format is cell-based, human. The text has this:
Methods: Human Bone Marrow was Collected from Consenting Adult Patients undergoing either an elective primary proximal femoral total hip arthroplasty or elective primary distal femoral total knee arthroplasty (n=6, mean age 65) as a part of an IRB approved study. Human MSC were derived from the adherent fraction of cells derived from each whole bone marrow aspirate collected, while the monocyte population was collected from the non-adherent fraction of the bone marrow. The monocyte fraction was enriched through sub-culture with 100-ng/mL recombinant human macrophage colony-stimulating factor (MCSF; Wyeth). In parallel experiments described below, the femurs from 3-week (n=10) and 16-week (n=20) old male mice were collected and then the bone marrow was flushed from the femur according to the following: A 21-gauge needle was inserted into the femoral intramedular canal after the removal of the proximal and distal ends of the femur. Media was then carefully passed through the proximal end of the femur, which forced the bone marrow to pass out of the bone. Finally, the bone marrow pellet was mechanically disassociated using an 18-gauge needle and then passed through a 70-μm mesh filter. These whole bone marrow aspirates were used to generate osteoclasts. Cells were maintained in Dulbecco's Modification of Eagle's Media (DMEM) containing 10% fetal calf serum (v/v) and 1% penicillin-streptomycin-glutamine (PSG; Cellgro, Mediatech). […] The responsible IACUC committee approved all of the animal studies described in this work.
Osteogenesis: Osteogenic potential in MSC was assayed by chemically inducing mineral formation. MSC from at least three human patients were seeded at 5×10^3 cells per well and allowed to become confluent and woven prior to the addition of osteo-induction media. Induction media consisted of DMEM containing 20% FCS (v/v) and 1% PSG supplemented with 25-μg/mL of acscorbic-2-phosphate (Sigma), 100-nM dexamethasone (Sigma) and the following dosing regimen of β-glycerophosphate (BGP; Sigma): 1× media change with 5-mM BGP, 1× media change with 10-mM BGP and 1× media change with 20-mM of BGP. Met5-ligand (0-, [5-μM] 2.87-, or [50-μM] 28.7-μg; Sigma), naloxone (0-, 400-fg, 400-pg, 400-ng, 400-μg; Sigma) or naltrexone (0-, 378-fg, 378-pg, 378-ng, 378-μg; Sigma) was added as follows: 1) 1×, with the first addition of osteo-induction media, 2) 2×, with the first and second addition of osteo-induction media and 3) with each post-induction media change. […] After the appearance of mineral nodules, cells were fixed with 70% ice-cold EtOH (Sigma) and then stained using 40-mM alizarin red-S (pH 4.2, Sigma). Osteogenesis experiments were repeated at least twice for each patient.

The test system of another assay is MSC. Kind of assay: Assay of cell number (MTT) in MSC cultures. The class given is cell-based, human. The note with it: 1-mM. As for the experimental part:
(§1) Assay of Cell Number: Following the addition of 1-mM naloxone or 1-mM naltrexone, viable cell number was determined with the MTT assay. After 72-hours and 120-hours, MTT (5 mg/ml (w/v), Sigma) was added to each well, incubated for 2-hours, after which the cells lysed with 500-μl of DMSO (Sigma). MTT was measured at 570-nm and the effects of therapy on cell proliferation were determined by normalizing treated wells relative to mean values from non-treated wells: Fold change in cell number=100*[treated cells optical density/mean control optical density].

Assay [2] relates to monocytes cultured to become osteoclasts. The experiment in a line: TRAP staining and assay of osteoclast number. The class given is cell-based, human, mouse. Here is the method:
TRAP Staining and the Assay of Osteoclast Number: Osteoclasts were derived from either an enriched population of human monocytes or from mouse non-enriched whole bone marrow aspirates. Three human patient bone marrow samples were assayed in parallel with samples collected from 3-week (n=10) mouse bone marrow. The monocyte fraction was stimulated to become osteoclasts by culturing 1×10^6 cells with 25-ng/mL of MCSF and 25-ng/mL of recombinant human or mouse RANK-ligand (R&D Systems) in the presence of the met5-ligand ([5-μM] 2.87-, or [50-μM] 28.7-μg; Sigma), naloxone (400-ng or 400-μg; Sigma) or naltrexone (378-ng or 378-μg; Sigma). Osteoclasts were stained with tartrate resistant acid phosphatase (TRAP; Sigma Leukocyte Acid Phosphatase Kit 387-A) and counted when cells stained TRAP-positive and had at least three nuclei. Estimates of osteoclast number were obtained by Cavalieri sampling and a modification of the fractionator technique.

The test system of assay [3] is SaO52 osteosarcoma tumor cells. The experiment in a line: Assay of cell number (MTT), osteosarcoma cells. The format is cell-based. As to conditions: 1-mM, seventy-two hours.
Source text: (§2) Methods: Human bone marrow was collected from consenting adult patients undergoing either an elective primary proximal femoral total hip arthroplasty or elective primary distal femoral total knee arthroplasty (n=6, mean age 65) as a part of an IRB approved study. Human MSC were derived from the adherent fraction of whole bone marrow aspirates. Ewing's sarcoma tumor cells (RDES, Hs822 and Hs863) and SaOS2 osteosarcoma tumor cells were obtained from ATCC. Cells were maintained in Dulbecco's Modification of Eagle's Media (DMEM) containing 10% fetal calf serum (v/v) and 1% penicillin-streptomycin-glutamine (PSG; Cellgro, Mediatech).
as §1

The subject of assay [4] is Hs822t Ewing's sarcoma of bone tumor cells. Kind of assay: Assay of cell number (MTT), Hs822t cells. The format is cell-based. As to conditions: 1-mM, seventy-two hours.
Source text: as §2, §1

Assay [5] relates to RDES Ewing's sarcoma of bone tumor cells. The experiment in a line: Assay of cell number (MTT), RDES cells. The format is cell-based. As to conditions: 1-mM, seventy-two hours.
Source text: as §2, §1

Regarding `C=CCN1CC[C@]23c4c5ccc(O)c4O[C@H]2C(=O)CC[C@@]3(O)[C@H]1C5` [naloxone], the “mineral accumulation, effect against met5” value in assay [1] (1-mM naloxone added with 5-μM or 50-μM met5 and osteoinduction media) is “abrogate the anti-osteogenic effects of met5”. For the same molecule, the “mineral accumulation (red staining)” value in assay [1] (between 1-μM and 1-mM with osteoinduction media) is “substantially increased mineral accumulation”. Besides, the mineral accumulation entry is on record as “slightly depressed” in assay [1] (continuous dosing, with every media change); “substantial increase in mineral accumulation” in assay [1] (double 'pulse' dose (2x), 1-mM, second 72-hours after the first); “substantial increase in mineral accumulation” in assay [1] (single 'pulse' dose (1x), 1-mM). Besides, the “MSC proliferation (cell number)” value in the assay on MSC (72-hours) was “suppressed, but did not stop”; in the assay with MSC (120-hours) it was “suppressed, but did not stop”. Further, the entries for the “osteoclast number (TRAP staining)” value in assay [2] (1-mM) and in assay [2] (1-μM) were “reduced osteoclast number substantially” and “did not significantly reduce osteoclast number”, respectively. Further, the “SaO52 osteosarcoma cell number relative to control cultures” value in assay [3] is on record as “decreased significantly”. The “Hs822t tumor cell number relative to control cultures” value in assay [4] was “no effect”. For the same molecule, the “RDES tumor cell number relative to control cultures” value in assay [5] was “decreased significantly”.
